{"source": "patent US20250073234A1", "about": "“COMBINATION THERAPIES INCLUDING PARP1 INHIBITORS” (Cornell University, priority 2022, published 2025)", "key": {"WPMY-1 cells": {"system": "WPMY-1 cells", "assay": "ATAC-seq chromatin accessibility in WPMY-1 cells", "assay_type": "cell-based, human", "conditions": "Olaparib-treated WPMY-1 cells, 96 h", "procedure": "The cell pellet was resuspended in 50 μl lysis buffer and then spun down 500×g for 10 minutes at 4° C. The nuclei pellet was resuspended into 50 μl transposition reaction mixture containing Tn5 transposase from Nextera DNA Library Prep Kit (Illumina) and incubated at 37° C. for 30 minutes. Then the transposase-associated DNA was purified using MinElute PCR purification kit (QIAGEN). To amplify the library, the DNA was first amplified for 5 cycles using indexing primer from Nextera kit and NEBNext High-Fidelity 2×PCR master mix. To reduce the PCR amplification bias, 5 μl of amplified DNA after the first 5 cycles was used to do qPCR of 20 cycles to decide the number of cycles for the second round of PCR. Usually, the maximum cycle of the second round of PCR is 5 cycles. Then the total amplified DNA was size selected to fragments less than 800 bp using SPRI beads. Quantification of the ATAC-seq library was done with QuBit. The size of the pooled library was examined by TapeStation. Barcoded ATAC-seq libraries were pooled and paired end sequenced (sX75) on the Illumina NextSeq 500 using the High output V2.5 kit (Illumina Inc., San Diego, CA).\nPeaks were annotated with ChipSeeker R package. […]."}, "[1]": {"system": "RM1-BoMe3 cells on femur pieces", "assay": "Bone-in-culture array (BICA) with RM1-BoMe3 cells", "assay_type": "cell-based, mouse", "conditions": "bone pre-treated with Olaparib 20 μM 48 h, ADT conditions", "procedure": "8-week-old C57B16 male mice were euthanized, and lower limb bone were collected. Femur epiphyses were dissected and fragmented in 4 pieces by sterilized micro dissecting scissors. Bone pieces were aligned into low-attachment 96-well plates pre-loaded with 200 μL DMEM/F12 supplemented with 5% charcoal striped FBS for ADT conditions. Bone pieces were treated with DMSO or Olaparib 20 μM for 48 h and then 5000 RM1-BoMe3-RFP-Luc cells were seed on top of the bone pieces. After 48 hours, pictures were taken using EVOS M5000 Imaging System and RFP^+ positive areas were measured using Fiji."}}, "data": [{"smiles": "O=C(c1cc(Cc2n[nH]c(=O)c3ccccc23)ccc1F)N1CCN(C(=O)C2CC2)CC1", "note": "[Olaparib]", "values": [{"measurement": "chromatin accessibility", "setting": "WPMY-1 cells", "value": "strong decrease in chromatin accessibility across the genome"}, {"measurement": "seeding of cancer cells onto the bone (RFP+ area)", "setting": "[1]", "value": "increased tumor homing of RM1-BoMe3"}, {"measurement": "seeding of cancer cells onto the bone (RFP+ area)", "setting": "[1]; listed as Ola", "value": "significantly increased the seeding of cancer cells onto the bone"}]}]}
